Tests used:
[1] = system: NCI-H1975; assay: Antiproliferative activity against human NCI-H1975 cells harboring EGFR L858R/T790M mutant after 72 hrs by MTT assay; format: functional, cell-based; details: NCI-H1975, 72 h
[2] = system: A-431; assay: Antiproliferative activity against human A431 cells harboring wild-type EGFR after 72 hrs by MTT assay; format: functional, cell-based; details: A-431, 72 h
[3] = biological target: T1, Epidermal growth factor receptor (Homo sapiens, UniProt P00533, L858R/T790M); assay: Inhibition of EGFR L858R/T790M mutant phosphorylation in human NCI-H1975 cells after 1 hr by ELISA; format: cell-based
[4] = biological target: T2, Epidermal growth factor receptor (Homo sapiens, UniProt P00533); assay: Inhibition of recombinant human GST-tagged wild-type EGFR cytoplasmic domain (668 to 1210 residues) expressed in baculovirus expression system using tyrosine04 peptide as substrate after 60 mins in presence of ATP by Z-LYTE assay
[5] = biological target: T1, Epidermal growth factor receptor; assay: Inhibition of recombinant human GST-tagged EGFR L858R/T790M mutant cytoplasmic domain (668 to 1210 residues) expressed in baculovirus expression system using tyrosine04 peptide as substrate after 60 mins in presence of ATP by Z-LYTE assay
[6] = biological target: T2, Epidermal growth factor receptor; assay: Inhibition of wild-type EGFR phosphorylation in human A431 cells preincubated for 1 hr followed by EGF stimulation measured after 45 mins by ELISA; format: cell-based
[7] = Selectivity ratio of IC50 for human A431 cells harboring wild-type EGFR to IC50 for human NCI-H1975 cells harboring EGFR L858R/T790M mutant; format: functional

T1 sequence (P00533 25-1210 T790M/L858R limits assumed): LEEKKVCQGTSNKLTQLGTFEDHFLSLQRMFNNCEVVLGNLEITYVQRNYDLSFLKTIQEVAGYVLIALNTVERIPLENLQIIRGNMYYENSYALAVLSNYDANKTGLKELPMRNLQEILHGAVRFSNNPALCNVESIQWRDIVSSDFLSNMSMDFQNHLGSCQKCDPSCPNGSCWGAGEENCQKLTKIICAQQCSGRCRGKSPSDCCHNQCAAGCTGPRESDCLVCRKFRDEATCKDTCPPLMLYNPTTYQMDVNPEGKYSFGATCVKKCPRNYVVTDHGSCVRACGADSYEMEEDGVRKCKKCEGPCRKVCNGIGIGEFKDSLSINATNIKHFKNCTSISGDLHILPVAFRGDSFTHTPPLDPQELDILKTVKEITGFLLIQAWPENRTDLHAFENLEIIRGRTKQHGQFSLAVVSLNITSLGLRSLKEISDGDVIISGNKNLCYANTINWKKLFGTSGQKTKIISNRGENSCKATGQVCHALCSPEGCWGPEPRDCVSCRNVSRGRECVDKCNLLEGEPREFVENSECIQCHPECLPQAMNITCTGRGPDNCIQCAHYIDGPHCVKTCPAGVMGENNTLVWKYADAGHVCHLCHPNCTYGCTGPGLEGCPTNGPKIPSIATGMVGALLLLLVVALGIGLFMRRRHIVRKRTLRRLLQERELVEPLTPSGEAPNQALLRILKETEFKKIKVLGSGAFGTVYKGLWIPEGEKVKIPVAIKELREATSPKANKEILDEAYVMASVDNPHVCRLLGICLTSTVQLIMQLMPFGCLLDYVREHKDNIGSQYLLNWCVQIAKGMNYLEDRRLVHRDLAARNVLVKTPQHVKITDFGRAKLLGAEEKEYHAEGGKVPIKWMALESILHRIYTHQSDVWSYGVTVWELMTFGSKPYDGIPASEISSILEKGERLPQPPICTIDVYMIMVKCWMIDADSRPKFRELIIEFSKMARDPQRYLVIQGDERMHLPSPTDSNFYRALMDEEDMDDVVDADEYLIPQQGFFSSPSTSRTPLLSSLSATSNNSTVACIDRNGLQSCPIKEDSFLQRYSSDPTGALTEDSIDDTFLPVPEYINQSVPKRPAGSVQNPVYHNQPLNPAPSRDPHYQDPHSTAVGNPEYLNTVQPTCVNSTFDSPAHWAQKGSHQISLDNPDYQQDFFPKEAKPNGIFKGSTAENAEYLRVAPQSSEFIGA
T2 sequence (P00533 whole entry, the tested form may be a part): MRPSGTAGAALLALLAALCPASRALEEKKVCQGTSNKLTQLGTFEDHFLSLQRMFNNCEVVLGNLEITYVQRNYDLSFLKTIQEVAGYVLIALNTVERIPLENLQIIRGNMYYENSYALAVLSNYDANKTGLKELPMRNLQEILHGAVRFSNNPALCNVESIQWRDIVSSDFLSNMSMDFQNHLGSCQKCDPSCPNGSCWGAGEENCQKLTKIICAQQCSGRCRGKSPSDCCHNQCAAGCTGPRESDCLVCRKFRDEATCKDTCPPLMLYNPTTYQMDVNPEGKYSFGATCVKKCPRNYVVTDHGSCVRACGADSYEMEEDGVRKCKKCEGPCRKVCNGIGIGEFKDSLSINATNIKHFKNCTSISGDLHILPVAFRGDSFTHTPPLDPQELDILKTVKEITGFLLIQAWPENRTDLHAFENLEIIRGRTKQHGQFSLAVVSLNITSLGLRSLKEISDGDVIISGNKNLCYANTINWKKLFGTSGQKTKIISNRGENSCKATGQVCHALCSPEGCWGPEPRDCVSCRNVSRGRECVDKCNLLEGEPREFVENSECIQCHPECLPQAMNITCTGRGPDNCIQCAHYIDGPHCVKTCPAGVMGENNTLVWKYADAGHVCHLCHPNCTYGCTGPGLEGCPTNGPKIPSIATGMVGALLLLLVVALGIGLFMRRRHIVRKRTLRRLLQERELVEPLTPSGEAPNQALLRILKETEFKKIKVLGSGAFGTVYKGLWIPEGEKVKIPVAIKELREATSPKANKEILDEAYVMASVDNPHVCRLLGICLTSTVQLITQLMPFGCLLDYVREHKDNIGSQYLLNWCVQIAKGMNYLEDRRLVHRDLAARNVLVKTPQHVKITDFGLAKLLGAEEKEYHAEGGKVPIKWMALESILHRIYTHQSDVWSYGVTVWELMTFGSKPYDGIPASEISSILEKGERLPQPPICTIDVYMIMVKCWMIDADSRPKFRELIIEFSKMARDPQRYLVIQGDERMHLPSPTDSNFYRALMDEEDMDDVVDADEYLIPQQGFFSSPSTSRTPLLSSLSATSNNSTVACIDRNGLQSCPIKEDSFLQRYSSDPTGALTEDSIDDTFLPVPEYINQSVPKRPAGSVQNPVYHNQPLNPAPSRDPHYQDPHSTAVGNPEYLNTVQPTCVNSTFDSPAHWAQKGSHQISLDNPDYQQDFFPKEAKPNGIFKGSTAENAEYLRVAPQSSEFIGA

## C=CC(=O)Nc1cccc(Oc2nc(Nc3ccc(N4CCN(C)CC4)cc3OC)ncc2Cl)c1
[1]
  IC50: 27 nM
[2]
  IC50: 1240 nM

## C=CC(=O)Nc1cccc(Oc2nc(Nc3ccc(N4CCN(C(C)=O)CC4)cc3OC)ncc2C(F)(F)F)c1
[3]
  IC50: 132 nM
[4]
  IC50: 67 nM
[5]
  IC50: 7 nM
[6]
  IC50: 1030 nM
[1]
  IC50: 117 nM
[2]
  IC50: 2530 nM

## C=CC(=O)Nc1cccc(NC(=O)N(C)c2ccnc(Nc3ccc(N4CCN(C)CC4)cc3OC)n2)c1
[4]
  IC50: > 1000 nM
[5]
  IC50: > 1000 nM

## C=CC(=O)Nc1cccc(NC(=O)Nc2ccnc(Nc3ccc(N4CCC(N5CCN(C)CC5)CC4)cc3OC)n2)c1
[3]
  IC50: 105 nM
[4]
  IC50: 80 nM
[5]
  IC50: 5 nM
[6]
  IC50: 2340 nM
[1]
  IC50: 106 nM

## C=CC(=O)Nc1cccc(NC(=O)Nc2ccnc(Nc3ccc(N4CCC(N(C)C)CC4)cc3OC)n2)c1
[3]
  IC50: 82 nM
[4]
  IC50: 45 nM
[5]
  IC50: 2 nM
[6]
  IC50: 1540 nM
[1]
  IC50: 107 nM
[2]
  IC50: 3380 nM

## C=CC(=O)Nc1cccc(NC(=O)Nc2ccnc(Nc3ccc(N(C)CCN(C)C)cc3OC)n2)c1
[3]
  IC50: 430 nM
[4]
  IC50: 49 nM
[5]
  IC50: 19 nM
[6]
  IC50: 1700 nM
[1]
  IC50: 502 nM
[2]
  IC50: 3400 nM

## C=CC(=O)Nc1cccc(NC(=O)Nc2ccnc(Nc3ccc(N(C)C)cc3)n2)c1
[4]
  IC50: 462 nM
[5]
  IC50: 170 nM

## C=CC(=O)Nc1cccc(NC(=O)Nc2ccnc(Nc3ccc(C4CCN(C)CC4)cc3)n2)c1
[4]
  IC50: > 1000 nM
[5]
  IC50: 510 nM

## C=CC(=O)Nc1cccc(NC(=O)Nc2ccnc(Nc3ccc(N4CCC(N5CCOCC5)CC4)cc3OC)n2)c1
[3]
  IC50: 41 nM
[4]
  IC50: 86 nM
[5]
  IC50: 4 nM
[6]
  IC50: 6460 nM
[1]
  IC50: 37 nM
[2]
  IC50: > 10000 nM
[7]
  Ratio IC50: >270

## C=CC(=O)Nc1cccc(NC(=O)Nc2ccnc(Nc3ccc(C(=O)N4CCN(C)CC4)cc3OC)n2)c1
[4]
  IC50: 972 nM
[5]
  IC50: 215 nM

## C=CC(=O)Nc1cccc(NC(=O)Nc2nc(Nc3ccc(N4CCC(N5CCOCC5)CC4)cc3OC)ncc2C(F)(F)F)c1
[4]
  IC50: > 1000 nM
[5]
  IC50: 270 nM

## C=CC(=O)Nc1cccc(NC(=O)Nc2ccnc(Nc3ccc(C4CCN(C)CC4)cc3OC)n2)c1
[3]
  IC50: 130 nM
[4]
  IC50: 273 nM
[5]
  IC50: 28 nM
[6]
  IC50: 5000 nM
[1]
  IC50: 75 nM
[2]
  IC50: > 10000 nM

## C=CC(=O)Nc1cccc(NC(=O)Nc2nc(Nc3ccc(N4CCC(N5CCOCC5)CC4)cc3OC)ncc2Cl)c1
[3]
  IC50: 131 nM
[4]
  IC50: 641 nM
[5]
  IC50: 37 nM
[6]
  IC50: 2210 nM
[1]
  IC50: 199 nM
[2]
  IC50: 2590 nM

## C=CC(=O)Nc1cccc(NC(=O)C(C)(C)c2ccnc(Nc3ccc(N4CCN(C)CC4)cc3OC)n2)c1
[4]
  IC50: > 1000 nM
[5]
  IC50: > 1000 nM

## C=CC(=O)Nc1cccc(NC(=O)Nc2ccnc(Nc3ccc(N4CCOCC4)cc3OC)n2)c1
[3]
  IC50: 218 nM
[4]
  IC50: 225 nM
[5]
  IC50: 15 nM
[6]
  IC50: > 10000 nM
[1]
  IC50: 173 nM

## C=CC(=O)Nc1cccc(NC(=O)Nc2ccnc(Nc3ccc(N4CCN(C)CC4)cc3)n2)c1
[3]
  IC50: 3150 nM
[4]
  IC50: 143 nM
[5]
  IC50: 48 nM
[1]
  IC50: 1930 nM

## C=CC(=O)Nc1cccc(NC(=O)Nc2ccnc(Nc3ccc(N4CCOCC4)cc3)n2)c1
[3]
  IC50: > 10000 nM
[4]
  IC50: 644 nM
[5]
  IC50: 87 nM
[6]
  IC50: > 10000 nM
[1]
  IC50: 7520 nM
[2]
  IC50: > 10000 nM

## C=CC(=O)Nc1cccc(NC(=O)Nc2ccnc(Nc3ccccc3OC)n2)c1
[4]
  IC50: > 1000 nM
[5]
  IC50: 192 nM

## C=CC(=O)Nc1cccc(NC(=O)Nc2ccnc(Nc3ccc(N4CCN(CCF)CC4)cc3OC)n2)c1
[3]
  IC50: 511 nM
[4]
  IC50: 158 nM
[5]
  IC50: 22 nM
[6]
  IC50: > 10000 nM
[1]
  IC50: 519 nM

## C=CC(=O)Nc1cccc(NC(=O)Nc2ccnc(Nc3ccc(OC)cc3OC)n2)c1
[3]
  IC50: 391 nM
[4]
  IC50: 348 nM
[5]
  IC50: 58 nM
[1]
  IC50: 467 nM

## C=CC(=O)Nc1cccc(NC(=O)Nc2ccnc(Nc3ccc(OCCOC)cc3)n2)c1
[4]
  IC50: > 1000 nM
[5]
  IC50: 266 nM

## C=CC(=O)Nc1cccc(NC(=O)Nc2ccnc(Nc3ccc(N4CCC(N(CC)CC)CC4)cc3OC)n2)c1
[1]
  IC50: 31 nM
[2]
  IC50: 2010 nM

## C=CC(=O)NC1CCCN(C(=O)Nc2ccnc(Nc3ccc(N4CCN(C)CC4)cc3OC)n2)C1 (centres undefined)
[4]
  IC50: > 1000 nM
[5]
  IC50: > 1000 nM

## C=CC(=O)Nc1cccc(NC(=O)Nc2ccnc(Nc3ccc(N4CCN(C)CC4)cc3OC)n2)c1
[3]
  IC50: 906 nM
[4]
  IC50: 17 nM
[5]
  IC50: 17 nM
[1]
  IC50: 525 nM

## C=CC(=O)Nc1cccc(NC(=O)Nc2ccnc(Nc3ccc(C(=O)N4CCOCC4)cc3OC)n2)c1
[4]
  IC50: > 1000 nM
[5]
  IC50: 128 nM

## C=CC(=O)Nc1cccc(NC(=O)Nc2ccnc(Nc3ccc(N(CC)CC)cc3OC)n2)c1
[3]
  IC50: 112 nM
[4]
  IC50: 183 nM
[5]
  IC50: 12 nM
[6]
  IC50: > 10000 nM
[1]
  IC50: 86 nM
[2]
  IC50: > 10000 nM

## C=CC(=O)Nc1cccc(NC(=O)C2(C(=O)Nc3ccnc(Nc4ccc(N5CCN(C)CC5)cc4OC)n3)CC2)c1
[4]
  IC50: > 1000 nM
[5]
  IC50: > 1000 nM

Source: ChEMBL document CHEMBL4219138, “Discovery of N-aryl-N'-pyrimidin-4-yl ureas as irreversible L858R/T790M mutant selective epidermal growth factor receptor inhibitors” (Bioorg Med Chem Lett, 2018)
